Values quoted from earlier work in PMC8160438, “A Novel Heptapeptide, GPPGPAG Transfers to the Brain, and Ameliorates Memory Dysfunction and Dendritic Atrophy in Alzheimer’s Disease Model Mice” (Frontiers in Pharmacology, 2021).

Conditions: in vivo, cited from earlier work
Experimental: In Figure 6H, the mean value of GPPGPAG in the cerebral cortex is 2.748 μg/g of tissue at 180 min after p.o. administration of 500 mg/mouse. When 10 mg/kg GPPGPAG is applied per orally, the transferred amount of GPPGPAG in the brain is calculated as 0.598 pmol. […] Identification of the BBB transporting system for GPPGPAG should be done in future.

Substance	transport into brain	crossing of the blood-brain barrier (po)
Gly-Pro	transported into brain	–
Tyr-Pro	transported into brain	–
RPRTRLHTHRNR-NH2 [12-amino acid peptide that crosses the blood-brain barrier]	–	crosses the blood-brain barrier (BBB) without digestion
